Assay results published in patent publication US20250368923A1, “PRE-MOISTENED ARTICLES FOR REFRESHING CLOTHING IN THE DRYER” (The Clorox Company, priority 2024, published 2025).
Read-outs that look alike come from different tables or passages of the source. Values belong to the molecule of their own block, whether it stands above or below them.

Tests used:
[1] = cited from earlier work
[2] = pKa and acid-form fraction of lactic acid; format: physicochemical; conditions: pH of 2.2
From the text: In some example embodiments of formulations including an allergen neutralizing agent, the pH of the formulations can be kept low. A low pH can enhance the organic acid efficacy (e.g., lactic acid efficacy) in neutralization of airborne allergens. Typically, pH is kept a least 1 unit below pKa of the organic acid to ensure the majority (e.g., at least 90%) of acid stays in the active (conjugate acid) form. […].

SMILES: CCCCCC(=O)O [hexanoic acid]
- Solubility in water (g of compound in 100 g of water at ~20° C.) [1]: 1.03 g of compound in 100 g of water

SMILES: CCCCCCC(=O)O [heptanoic acid]
- Solubility in water (g of compound in 100 g of water at ~20° C.) ([1]; ~20° C.): 0.2 g of compound in 100 g of water

SMILES: O=C(O)/C=C/C(=O)O [fumaric acid]
- Solubility in water (g of compound in 100 g of water at ~20° C.) ([1]; ~20° C.): 0.7 g of compound in 100 g of water

SMILES: CC(=O)CCC(=O)O [levulinic acid]
- Solubility in water (g of compound in 100 g of water at ~20° C.) ([1]; ~20° C.): 79.13 g of compound in 100 g of water

SMILES: CS(=O)(=O)O [methane sulfonic acid]
- Solubility in water (g of compound in 100 g of water at ~20° C.) ([1]; ~20° C.): 100 g of compound in 100 g of water

SMILES: CCCCC(=O)O [valeric acid]
- Solubility in water (g of compound in 100 g of water at ~20° C.) ([1]; ~20° C.): 3.75 g of compound in 100 g of water

SMILES: C/C=C/C=C/C(=O)O [sorbic acid]
- Solubility in water (g of compound in 100 g of water at ~20° C.) ([1]; ~20° C.): 0.156 g of compound in 100 g of water

SMILES: CC(=O)C(=O)O [pyruvic acid]
- Solubility in water (g of compound in 100 g of water at ~20° C.) ([1]; ~20° C.): 100 g of compound in 100 g of water

SMILES: O=C(O)/C=C\C(=O)O [maleic acid]
- Solubility in water (g of compound in 100 g of water at ~20° C.) ([1]; ~20° C.): 47.88 g of compound in 100 g of water

SMILES: O=C(O)CC(O)C(=O)O (centres unmarked) [malic acid]
- Solubility in water (g of compound in 100 g of water at ~20° C.) ([1]; ~20° C.): 64.7 g of compound in 100 g of water

- fraction of lactic acid in the acidic form [2]: at least 95%
SMILES: CC(O)C(=O)O (centres unmarked) [lactic acid]
